Experiment: Plasma pharmacokinetics of COMPOUND I in Phase I and II studies
Format: in vivo, patients

## CN1CCN(c2ccc3nc(-c4c(N)c5c(F)cccc5[nH]c4=O)[nH]c3c2)CC1 [COMPOUND I, 4-amino-5-fluoro-3-[6-(4-methylpiperazin-1-yl)-1H-benzimidazol-2-yl]-1H-quinolin-2-one]
500 mg/day on a 5 days on/2 days off dosing schedule
  inter-subject coefficient of variation (CV %) for AUC: around 50%
All doses tested from 25 to 600 mg, continuous daily dosing regimen
  plasma pharmacokinetic: time dependent
Doses of 400 mg/day and above, continuous daily dosing regimen
  exposure of COMPOUND I with dose: prolonged over-proportional exposure

— patent US20140221389A1, “USE OF 4-AMINO-5-FLUORO-3-[6-(4-METHYLPIPERAZIN-1-YL)-1H-BENZIMIDAZOL-2-YL]-1H-QUINOLIN-2-ONE IN THE TREATMENT OF CANCER IN MODERATE HEPATIC IMPAIRED PATIENTS” (Novartis AG, priority 2011, published 2014)
